PubChem BioAssay (NCI)
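Interpolation was linear, between the two tested concentrations surrounding the appropriate level; five concentrations were tested over 48 hours in 96-well plates. TGI is the concentration that stops growth completely.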 Where a SMILES comes first, the peptide text is derived from it. The star is where a group is joined. Boc = CC(C)(C)OC(=O)*; Bn = c1ccc(C*)cc1

Assays:
Test in all cases: inhibition of tumour cell growth, NCI panel, 48 h
MOLT-4 leukemia = system: MOLT-4 leukemia
SK-MEL-5 melanoma = system: SK-MEL-5 melanoma
CAKI-1 renal = system: CAKI-1 renal
HT29 colon = system: HT29 colon
SF-539 CNS = system: SF-539 CNS
UACC-257 melanoma = system: UACC-257 melanoma
SK-MEL-28 melanoma = system: SK-MEL-28 melanoma
HOP-62 NSCLC = system: HOP-62 NSCLC
HL-60(TB) leukemia = system: HL-60(TB) leukemia
MDA-MB-231 breast = system: MDA-MB-231 breast
MDA-N = system: MDA-N
PC-3 prostate = system: PC-3 prostate

Row | Structure (SMILES) | TGI (MOLT-4 leukemia) [µM] | TGI (SK-MEL-5 melanoma) [µM] | TGI (CAKI-1 renal) [µM] | TGI (HT29 colon) [µM] | TGI (SF-539 CNS) [µM] | TGI (UACC-257 melanoma) [µM] | TGI (SK-MEL-28 melanoma) [µM] | TGI (HOP-62 NSCLC) [µM] | TGI (HL-60(TB) leukemia) [µM] | TGI (MDA-MB-231 breast) [µM] | TGI (MDA-N) [µM] | TGI (PC-3 prostate) [µM]
1 | C=CCN(N=O)C(=O)N(CCCCC(NC(C)=O)C(=O)NCc1ccccc1)Cc1ccccc1 (configuration not stated) | 45.4 | 30 | > 100 | 36.8 | > 100 | > 100 | > 100 | > 100 | 43.5 | – | – | –
2 | CC(C)(C)OC(=O)NC(Cc1ccc(OCc2ccccc2)cn1)C(N)=O (configuration not stated) | – | 94.2 | > 100 | > 100 | > 100 | > 100 | > 100 | > 100 | > 100 | > 100 | > 100 | > 100
3 | O=C(Nc1ccccc1[N+](=O)[O-])C(=O)C(C(=O)c1ccccc1-c1ccccc1)C1OC(=O)c2ccccc21 (configuration not stated) | 85.4 | 32.7 | > 100 | 59.2 | 29.2 | 33 | 37.7 | 36 | 47.6 | – | – | –
4 | O=C1COc2cc3c(cc2N1)SCCC(=O)N3 | > 100 | > 100 | > 100 | > 100 | > 100 | > 100 | > 100 | > 100 | > 100 | – | – | –
5 | COc1ccc2c(c1)C1c3ccccc3CCN1CCC2 (configuration not stated) | > 100 | > 100 | > 100 | > 100 | > 100 | > 100 | > 100 | > 100 | – | 84.7 | – | > 100
6 | Cc1ccc(S(=O)(=O)NC(=O)NCC(N)=O)cc1 | > 100 | > 100 | – | > 100 | > 100 | > 100 | > 100 | > 100 | > 100 | > 100 | > 100 | > 100
7 | Cc1ccc(S(=O)(=O)OI(O)CC(F)(F)F)cc1 | > 100 | > 100 | > 100 | > 100 | > 100 | > 100 | > 100 | > 100 | > 100 | > 100 | – | > 100
8 | CCC1(CC)C(=O)NN(C(=O)c2ccc(Cl)cc2)C1=O | > 100 | > 100 | > 100 | > 100 | – | > 100 | > 100 | > 100 | > 100 | > 100 | > 100 | > 100
9 | COc1ccc(/C(=C\c2cc(OC)c(OC)c(OC)c2)C(=O)O)cc1 | 86.3 | 41.7 | > 100 | > 100 | 39 | > 100 | > 100 | > 100 | 72.3 | – | – | –
10 | COc1cccc(N2C(=O)C3c4[nH]c5ccc(C)cc5c4C4CCC(C)CC4C3C2=O)c1 (configuration not stated) | – | > 100 | > 100 | > 100 | > 100 | > 100 | > 100 | 42.6 | 25.3 | > 100 | > 100 | > 100
11 | Oc1ccccc1-c1n[nH]c(-c2ccccc2O)n1 | > 100 | > 100 | > 100 | > 100 | > 100 | – | > 100 | > 100 | > 23.7 | > 100 | > 100 | 4.72
12 | CN(C(=O)c1cc2c(s1)sc1c(=O)n(C)c3ccccc3c12)c1ccccc1 | > 100 | > 100 | 40.8 | > 100 | 59.8 | > 100 | > 100 | – | – | > 100 | > 100 | > 100
13 | O=c1[nH]c2cc3[nH]c(=O)c(=O)[nH]c3cc2[nH]c1=O | > 100 | > 100 | > 100 | > 100 | > 100 | > 100 | > 100 | – | > 100 | > 100 | – | > 100
14 | CC(C)(C)Cc1cc(O)ccc1O | > 100 | – | > 100 | > 100 | > 100 | > 100 | > 100 | > 100 | 26.6 | > 100 | > 100 | > 100
15 | O=[N+]([O-])c1cc(Cl)ccc1S(=O)(=O)c1ccc(Cl)cc1[N+](=O)[O-] | 84.4 | 27.7 | 33.9 | 30.9 | 32.7 | 26.7 | 32 | 35.9 | 58 | – | – | –
16 | COC(=O)C(CC(C)C)NC(=O)CNC(=O)C(Cc1ccc(OCc2ccccc2)cc1)NC(=O)C(COCc1ccccc1)NC(=O)OC(C)(C)C (configuration not stated) (Boc-S(Bn)Y(Bn)GL-OMe; configuration not given here) | > 100 | > 100 | > 100 | > 100 | > 100 | – | > 100 | > 100 | 39.7 | > 100 | > 100 | > 100
17 | CC(=O)OCC1OC(n2c(=S)n(-c3ccccc3)c(=O)c3cc(Br)ccc32)C(OC(C)=O)C(OC(C)=O)C1OC(C)=O (configuration not stated) | > 100 | > 100 | > 100 | > 100 | > 100 | > 100 | > 100 | > 100 | > 100 | – | – | –
18 | O=c1[nH]cc(COCC(O)CO)c(=O)[nH]1 (configuration not stated) | > 100 | > 100 | > 100 | > 100 | > 100 | > 100 | > 100 | > 100 | > 100 | – | – | –
19 | Oc1ccc2ccccc2c1NCn1nc(CCCCCCCCc2nn(CNc3c(O)ccc4ccccc34)c(=S)o2)oc1=S | > 100 | > 100 | > 100 | > 100 | – | > 100 | > 100 | > 100 | – | > 100 | > 100 | > 100
20 | COC1=CC(=O)c2c(n[nH]c2CCNC(=O)OCc2ccccc2)C1=O | 51.4 | 13 | – | 40.8 | 34.1 | 28.3 | 24.5 | 37.2 | 41.9 | 31.3 | 4.61 | > 100
